{"source": "patent US20200165312A1", "about": "“COSMETIC COMPOSITION FOR IMPROVING SKIN CONDITIONS COMPRISING FUSION PROTEIN INCLUDING SKIN PENETRATION ENHANCING PEPTIDE” (LG HOUSEHOLD & HEALTH CARE LTD., priority 2017, published 2020)", "key": {"C2C12 cells": {"test_system": "C2C12 cells", "test": "Inhibition of muscle contraction: contractions of C2C12 cells co-cultured with neuroblasts", "format": "cell-based", "conditions": "50 ppm, 2 hours, medium without FBS, counted for 30 seconds; FIG. 1", "protocol": "Then, the number of contractions of the C2C12 cells was measured for 30 second at the initial stage of cell contraction and all of the medium was removed, followed by washing three times with PBS. The cells were reacted for 2 hours in a medium supplemented with 50 ppm of the fusion peptide without the FBS. Then, the number of contractions of the C2C12 cells was measured for 30 seconds to identify the degree of inhibiting muscle contraction."}, "[1]": {"conditions": "2 μg in donor chamber, 16 hours, amount in receiver chamber relative to control peptide"}, "[2]": {"conditions": "amount present in the porcine skin by HPLC, relative to control peptide"}, "dermal papilla cells": {"test_system": "dermal papilla cells", "test": "Hair follicle stem cell proliferation: dermal papilla cells, Cell Counter Kit-8", "format": "cell-based", "conditions": "1 ng/mL T-VEGF or VEGF, one day; control = 100", "protocol": "(§1) Specifically, dermal papilla cells were inoculated onto a 96-well plate and cultured for 24 hours to obtain cultures at a density of 6,000 cells per well. The cultures were washed with PBS and cultured in a serum-free DMEM medium for one day. The cells were washed with PBS again and cultured in a serum-free DMEM medium supplemented with 1 ng/mL T-PDGFa or PDGFa for one day. The cultures were obtained therefrom and a difference between proliferated amounts of cells was quantitively analyzed using the Cell Counter Kit-8 (Dojindo). Here, dermal papilla cells cultured in a serum-free DMEM medium without T-PDGFa or PDGFa were used as a control (Table 6).\n(§2) Specifically, dermal papilla cells were inoculated onto a 96-well plate and cultured for 24 hours to obtain cultures at a density of 6,000 cells per well. The cultures were washed with PBS and cultured in a serum-free DMEM medium for one day. […] The cultures were obtained therefrom and a difference between proliferated amounts of cells was quantitively analyzed using the Cell Counter Kit-8 (Dojindo).\nas §1, with “T-IGF-1” for “T-PDGFa”, “IGF-1” for “PDGFa”, “15).” for “6).”\nas §1, with “10” for “1”, “T-KGF” for “T-PDGFa”, “KGF” for “PDGFa”, “19).” for “6).”\nas §1, with “10” for “1”, “T-Tβ4” for “T-PDGFa”, “Tβ4” for “PDGFa”, “23).” for “6).”"}, "dermal fibroblasts": {"test_system": "dermal fibroblasts", "test": "Hyaluronic acid (HA) production in dermal fibroblasts (ELISA)", "format": "cell-based, human", "conditions": "10 ng/mL T-VEGF or VEGF, two days; control = 100", "protocol": "(§3) Specifically, dermal fibroblasts were inoculated onto a 24-well plate and cultured for 24 hours to obtain cultures having a saturation degree of 70 to 80%. The cultures were washed with PBS and cultured in a serum-free DMEM medium including 10 ng/mL T-PDGFa or PDGFa for two days. A supernatant was obtained therefrom and the amount of hyaluronic acid (HA) produced and released in the culture solution was quantitively analyzed using an ELISA kit (R&D Systems) (Table 5).\nas §3, with “The cultures were washed with PBS and cultured in a serum-free DMEM medium including 10 ng/mL T-PDGFa or PDGFa for two days.” left out, “9).” for “5).”"}, "[3]": {"test_system": "human umbilical vein endothelial cells", "test": "Endothelial cell proliferation, Cell Counter Kit-8", "format": "cell-based", "conditions": "100 ng/mL T-VEGF or VEGF, serum-free M199, one day; control = 100", "protocol": "as §2, with “human umbilical vein endothelial” for “dermal papilla”, “5,000” for “6,000”, “M199” for “DMEM”, “16 hours.” for “one day.”\nSpecifically, human umbilical vein endothelial cells were inoculated onto a 96-well plate and cultured for 24 hours to obtain cultures at a density of 5,000 cells per well. The cultures were washed with PBS and cultured in a serum-free M199 medium for 16 hours. The cells were washed with PBS again and cultured in a serum-free M199 medium supplemented with 100 ng/mL T-Tβ4 or Tβ4 for one day. The cultures were obtained therefrom and a difference between proliferated amounts of cells was quantitively analyzed using the Cell Counter Kit-8 (Dojindo). Here, human umbilical vein endothelial cells cultured in a serum-free M199 medium without T-Tβ4 or Tβ4 were used as a control (Table 22)."}}, "note": "Where a SMILES comes first, the peptide text is derived from it. Where no end group is shown, it is not given here. The star is where a group is joined. Palmitoyl = CCCCCCCCCCCCCCCC(=O)*"}
{"compound": "Acetyl-Glu-Glu-Met-Gln-Arg-Arg (Ac-EEMQRR) [Argireline ™, neurotransmitter release regulating peptide used as control peptide]", "values": [{"measurement": "number of contractions of the C2C12 cells", "setting": "C2C12 cells", "value": "reduced"}]}
{"compound": "CCCCCCCCCCCCCCCC(=O)N[C@@H](Cc1ccc(O)cc1)C(=O)N1CCC[C@H]1C(=O)N[C@@H](Cc1c[nH]c2ccccc12)C(=O)N[C@H](C(=O)N[C@@H](CCC(N)=O)C(=O)N[C@@H](CCCNC(=N)N)C(=O)N[C@@H](Cc1ccccc1)C(=O)N[C@@H](CC(N)=O)C(=O)NCC(=O)N[C@@H](CO)C(=O)N[C@@H](CC(C)C)C(=O)N[C@@H](CC(N)=O)C(=O)N[C@H](C(=O)N[C@@H](Cc1c[nH]cn1)C(=O)N[C@@H](CC(C)C)C(=O)N[C@@H](C)C(=O)N1CCC[C@H]1C(=O)N[C@H](C(=O)N[C@@H](CC(C)C)C(=O)O)[C@@H](C)CC)[C@@H](C)O)[C@@H](C)O", "note": "[Fusion protein including [Pal]YPWTQRF] (Palmitoyl-YPWTQRFNGSLNTHLAPIL-OH)", "values": [{"measurement": "Penetration enhancement (%)", "setting": "[1]", "value": "280 ± 15", "unit": "%"}, {"measurement": "Relative penetration (%)", "setting": "[2]", "value": "6290 ± 1350", "unit": "%"}]}
{"compound": "VEGF", "values": [{"measurement": "Proliferation (%)", "setting": "dermal papilla cells", "value": "340 ± 50", "unit": "%"}, {"measurement": "Production (%) of hyaluronic acid (HA)", "setting": "dermal fibroblasts", "value": "220 ± 20", "unit": "%"}, {"measurement": "Proliferation (%)", "setting": "[3]", "value": "170 ± 10", "unit": "%"}]}
